Experimental data from patent US5288720A, “Angiotensin II receptor blocking 2,3,6 substituted quinazolinones” (American Cyanamid Company, priority 1993, dated 1994).

Each compound was assayed against T1, Angiotensin II Receptor (Bos taurus, UniProt P25104) (assay: Receptor Binding Assay: Binding of [^125 I](Sar^1,Ile^8)AngII to beef adrenal cortex membranes). Settings: 60 min, room temperature.
T1 construct: The brownish tissue forming the adrenal cortex is scraped off and finely minced with scissors before homogenization; from tissue; host or cells: beef adrenal cortex, microsomal membranes (100,000×g pellet); fresh glands from a local slaughter house (Maxwell-Cohen)
T1 sequence (P25104 1-359): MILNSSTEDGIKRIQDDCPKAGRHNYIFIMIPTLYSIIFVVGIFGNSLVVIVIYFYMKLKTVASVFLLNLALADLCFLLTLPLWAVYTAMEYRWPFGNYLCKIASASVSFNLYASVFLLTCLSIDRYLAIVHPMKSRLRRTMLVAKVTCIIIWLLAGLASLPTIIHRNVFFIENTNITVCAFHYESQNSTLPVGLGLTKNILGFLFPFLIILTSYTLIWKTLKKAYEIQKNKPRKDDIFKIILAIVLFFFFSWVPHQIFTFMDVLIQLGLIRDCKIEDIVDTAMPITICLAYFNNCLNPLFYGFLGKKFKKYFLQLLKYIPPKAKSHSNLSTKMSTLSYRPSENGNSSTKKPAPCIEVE
Outline: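 Competition binding of [125I](Sar1,Ile8)AngII (2200 Ci/mmole) to bovine adrenal cortex membranes (100,000×g pellet) in 50.0 mM Tris.HCl, pH 7.2, 0.1 mM PMSF. Compounds were added in DMSO and incubated 60 min at room temperature, in triplicate. Bound ligand was filtered onto PEI-presoaked filters and gamma-counted, with nonlinear analysis.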

SMILES	IC50 [nM]
CCCCc1nc2ccc(C(OC)C3CCCO3)cc2c(=O)n1Cc1ccc(-c2ccccc2-c2nn[nH]n2)cc1 (single isomer, unassigned) [Example 24]	38
CCCCc1nc2ccc(C(OC)C3CCCO3)cc2c(=O)n1Cc1ccc(-c2ccccc2-c2nn[nH]n2)cc1 (single isomer, unassigned; isomer 1) [Example 23, 2-Butyl-6-[methoxy(tetrahydro-2-furanyl)methyl-3-[[2'-(1H-tetrazol-5-yl)[1,1'-biphenyl]-4-yl]-methyl]-4(3e,uns/H/ )-quinazolinone isomer 1]	68
CCCCc1nc2ccc(C(O)C3CCN(C)C3=O)cc2c(=O)n1Cc1ccc(-c2ccccc2-c2nn[nH]n2)cc1 (single isomer, unassigned; isomer 1) [Example 32, 2-Butyl-6-[hydroxy(1-methyl-2-oxo-3-pyrrolidinyl)methyl]-3-[[2'-(1e,uns/H/ -tetrazol-5-yl)[1,1'-biphenyl]-4-yl]methyl]-4(3H)-quinazolinone isomer 1]	41
CCCCc1nc2ccc(C(O)C3CCCN(C)C3=O)cc2c(=O)n1Cc1ccc(-c2ccccc2-c2nn[nH]n2)cc1 (single isomer, unassigned; isomer 1) [Example 37, 2-Butyl-6-hydroxy(1-methyl-2-oxo-3-piperidinyl)methyl]-3-[[2'-(1H-tetrazol-5-yl)[1,1'-biphenyl]-4-yl]methyl]-4(3H)-quinazolinone isomer 1]	41
CCCCc1nc2ccc(C(OC)C3CCCN(C)C3=O)cc2c(=O)n1Cc1ccc(-c2ccccc2-c2nn[nH]n2)cc1 (single isomer, unassigned; isomer 1) [Example 42, 2-Butyl-6-methoxy(1-methyl-2-oxo-3-piperidinyl)methyl]-3-[[2' -1H-tetrazol-5-yl)[1,1'-biphenyl]-4-yl]methyl-4(3H)-quinazolinone isomer 1]	92
CCCCc1nc2ccc(C(O)C3CCN(C)C3=O)cc2c(=O)n1Cc1ccc(-c2ccccc2-c2nn[nH]n2)cc1 (single isomer, unassigned; isomer 2) [Example 33, 2-Butyl-6-[hydroxy(1-methyl-2-oxo-3-pyrrolidinyl)methyl-3-[[2'-(1H-tetrazol-5-yl)[1,1'-biphenyl]-4-yl]methyl]-4(3H)-quinazolinone isomer 2]	29
CCCCc1nc2ccc(C(O)C3CCCN(C)C3=O)cc2c(=O)n1Cc1ccc(-c2ccccc2-c2nn[nH]n2)cc1 (single isomer, unassigned; isomer 2) [Example 38, 2-Butyl-6-hydroxy(1-methyl-2-oxo-3-piperidinyl)methyl-3-[[2'-(1H-tetrazol-5-yl)[1,1'-biphenyl]-4-yl]methyl-4(3H)-quinazolinone isomer 2]	67
CCCCc1nc2ccc(C(OC)C3CCCN(C)C3=O)cc2c(=O)n1Cc1ccc(-c2ccccc2-c2nn[nH]n2)cc1 (single isomer, unassigned; isomer 2) [Example 43, 2-Butyl-6-[methoxy(1-methyl-2-oxo-3-piperidinyl)methyl]-3-[[2'-(1H-tetrazol-5-yl)[1,1'-biphenyl]-4-yl]methyl]-4(3H)-quinazoline isomer 2]	71
